The subject of series [1] is B16F10. In words: Growth inhibition test (MTT) for cytotoxic properties, B16F10. The settings on record: read-out: IC50/nM B16F10.
Procedure: (§1) The human large intestine cell lines SW 480 and HT 29 (ATCC No. CCL 228 and HBT 38) and the mouse melanoma cell line B16F10 (CRL 6475) were grown in Roux dishes in RPMI 1640 medium with addition of 10% FCS. They were then trypsinized and taken up in RPMI plus 10% FCS to a cell count of 50,000 cells/ml for SW 480 and HT 29 and 20,000 cells for B16F10. 100 μl of cell suspension/well were added to a 96 microwell plate and incubated for 1 day at 37° C. in a CO2 incubator. A further 100 μl of RPMI medium and 1 μl of DMSO containing the test substances were then added. The growth was checked after day 6. To do this, 25 μl of MTT solution (3-(4,5-dimethylthiazol-2-yl)-2,5-diphenyltetrazolium bromide) having a starting concentration of 5 mg/ml of H2O were added to each microwell. Incubation was carried out for 5 hours in a CO2 incubator at 37° C. The medium was then aspirated and 100 μl of i-propanol/well were added. After shaking for 30 min with 100 μl of H2O, the extinction was measured at 595 nm using a multiplate reader (Bio.) 3550 UV.
For series [2], the system named is SW 480. In words: Growth inhibition test (MTT) for cytotoxic properties, SW 480. The settings on record: read-out: IC50/nM SW 480.
Procedure: as §1
Series [3] relates to mouse bone marrow stem cells. In words: Inhibition of the CSF-induced proliferation of mouse bone marrow stem cells. The settings on record: recombinant murine GM-CSF, 7 days, colony count.
Procedure: Bone marrow cells were washed out of mice femurs. 10^5 cells were incubated at 37° C. and 7% CO2 in McCoy 5A medium (0.3% agar) together with recombinant murine GM-CSF (Genzyme; stem cell colony formation) and the substances (10^−4 to 100 μg/ml). 7 days later, the colonies (<50 cells) and clusters (17-50 cells) were counted.
Series [4] relates to HT 29. In words: Growth inhibition test (MTT) for cytotoxic properties, HT 29. The conditions noted are these: read-out: IC50/nM HT 29.
Procedure: as §1
The test system of series [5] is large-cell human lung tumour xenograft LXFL 529. In words: In vivo inhibition of tumour growth in the nude mouse model. The settings on record: for Survival time: LXFL 529 nude mice, individual animals; for therapeutic efficacy (tumour remission): maximum tolerable dose (MTD) and ½ MTD, LXFL 529.
Procedure: For all in vivo experiments for investigation of the inhibition of tumour growth, athymic nude mice (NMRI nu/nu strain) were used. The selected large-cell lung carcinoma LXFL 529 was grown by serial passage in nude mice. The human origin of the tumour was confirmed by isoenzymatic and immunohistochemical methods.
The tumour was implanted subcutaneously into both flanks of small nu/nu nude mice 6 to 8 weeks old. […] The mice were assigned to the treatment group and the control group (5 mice per group with 8-10 assessable tumours) by randomization.
The size of the tumours was measured in two dimensions by means of a slide gauge. The tumour volume, which correlated well with the cell count, was then used for all evaluations. The volume was calculated according to the formula “length×breadth×breadth/2” ([a×b^2]/2, a and b represent two diameters at right angles).
The values of the relative tumour volume (RTV) were calculated for each individual tumour by dividing the tumour size on day X with the tumour size on day 0 (at the time of randomization). The mean values of the RTV were then used for the further evaluation.
The inhibition of the tumour volume (relative tumour volume of the test group/control group×100, T/C in %) was the final measured value.
The administration of the compounds was carried out intravenously (i.v.), for example on day 0, 1 and 2 after randomization, the total dose per day being split over 2 administrations.
[6] abbreviates: B16F10 cells, MTT, growth checked after day 6.
[7] abbreviates: SW 480 cells, MTT, growth checked after day 6.
Where [8] appears, read: HT 29 cells, MTT, growth checked after day 6.
Setting [9] is: 16 mg/kg/day i.v., LXFL 529, optimum on day 28.

Where “and” joins values, the source holds several entries; their conditions need not be identical. Identical values can stand only once. Counter-ions that a name gives are not always drawn. Like-named read-outs stand apart in the source and are kept apart here.

Consider `CC[C@@]1(O)C(=O)OCc2c1cc1n(c2=O)Cc2cc3ccccc3nc2-1` [20(S)-Camptothecin, reference compound], for which the IC50 in series [1] (setting [6]) stood at 20 nM; in series [2] (setting [7]), 10 nM; in series [4] (setting [8]) it was 5 nM. In series [3], the “Inhibition of the CSF-induced proliferation of mouse bone marrow stem cells IC50” value worked out at 0.05 ng/mL.
Regarding `CC[C@@]1(OC(=O)C(CC(C)C)NC(=O)[C@H](CCCCN)NC(=S)Nc2ccc(OC3O[C@@H](C)[C@@H](O)[C@@H](OC)[C@@H]3O)cc2)C(=O)OCc2c1cc1n(c2=O)Cc2cc3ccccc3nc2-1` (stereo partly drawn) [Example 1, 20(S)-20-O-{N^α-[O-(3-O-Methyl-β-L-fucopyranosyl)-4-hydroxy-phenylamino-thiocarbonyl]-L-lysyl-L/D-leucyl}-camptothecin, hydrochloride], the “opt. T/C” value in series [5] (8 mg/kg/day i.v., LXFL 529, optimum on day 14) is 0%; in series [5] (setting [9]), 0%. The Survival time in series [5] (8 mg/kg/day i.v., hydrochloride) was 0 days and >28 days (4×); in series [5] (16 mg/kg/day i.v.) it was above 28 days. Also, the “Relative body weight on day 7 [% of day 0]” value in series [5] (8 mg/kg/day i.v.) and in series [5] (16 mg/kg/day i.v.) was 95 % of day 0 in each case. Further, the “tumour remission (FIG. 1)” value in series [5] (dose range from 16 to 8 mg/kg, therapy schedule day 1-3 i.v., further experiment) is reported as “long-lasting complete remission”. The “therapeutic efficacy (tumour remission)” value in series [5] is on record as “complete to marked tumour remission”. For the same compound, the IC50 came out at 200 nM in series [1] (Mus musculus, B16-F10, 144 h); 70 nM in series [2] (Homo sapiens, SW480, 144 h); 40 nM in series [4] (Homo sapiens, HT-29, 144 h).
For the compound `CCC1(OC(=O)C(NC(=O)[C@H](Cc2c[nH]cn2)NC(=S)Nc2ccc(OC3OC(C)C(O)C(OC)C3O)cc2)C(C)C)C(=O)OCc2c1cc1n(c2=O)Cc2cc3ccccc3nc2-1.Cl` (stereo partly drawn) [Example 2, 20(S)-20-O-{N-[O-(3-O-Methyl-β-L-fucopyranosyl)-4-hydroxy-phenylamino-thiocarbonyl]-L-histidyl-L/D-valyl}-camptothecin, hydrochloride], the “opt. T/C” value is 3.3% in series [5] (setting [9]) and 0% in series [5] (32 mg/kg/day i.v., LXFL 529, optimum on day 21). Also, the Survival time in series [5] (16 mg/kg/day i.v.) is above 28 days; in series [5] (32 mg/kg/day i.v., hydrochloride), >28 days (3×) and 20 days and 1 days. The “Relative body weight on day 7 [% of day 0]” value in series [5] (16 mg/kg/day i.v.) is 103 % of day 0; in series [5] (32 mg/kg/day i.v.), 98 % of day 0. Besides, in series [5], the “therapeutic efficacy (tumour remission)” value is listed as “complete to marked tumour remission”. Also, the IC50 in series [1] (Mus musculus, B16-F10, 144 h) turned out to be 300 nM; in series [2] (Homo sapiens, SW480, 144 h), 100 nM; in series [4] (Homo sapiens, HT-29, 144 h), 40 nM.
For the compound `CC[C@@]1(OC(=O)[C@@H](CC(C)C)NC(=O)[C@@H](CCCCN)NC(=S)Nc2ccc(OC3O[C@@H](C)[C@@H](O)[C@@H](OC)[C@@H]3O)cc2)C(=O)OCc2c1cc1n(c2=O)Cc2cc3ccccc3nc2-1` (stereo partly drawn) [Example 3, 20(S)-20-O-{N^α-[O-(3-O-Methyl-β-L-fucopyranosyl)-4-hydroxy-phenylamino-thiocarbonyl]-D-lysyl-D-leucyl}-camptothecin, hydrochloride], the IC50 in series [1] (Mus musculus, B16-F10, 144 h) was 500 nM; in series [2] (Homo sapiens, SW480, 144 h), 100 nM; in series [4] (Homo sapiens, HT-29, 144 h) it was 20 nM.
For the compound `CC[C@@]1(OC(=O)[C@@H](CC(C)C)NC(=O)[C@H](CCCN)NC(=S)Nc2ccc(OC3O[C@@H](C)[C@@H](O)[C@@H](OC)[C@@H]3O)cc2)C(=O)OCc2c1cc1n(c2=O)Cc2cc3ccccc3nc2-1` (stereo partly drawn) [Example 4, 20(S)-20-O-{N^α-[O-(3-O-Methyl-β-L-fucopyranosyl)-4-hydroxy-phenylamino-thiocarbonyl]-L-ornithyl-D-leucyl}-camptothecin, hydrochloride], the IC50 was found to be 500 nM in series [1] (Mus musculus, B16-F10, 144 h); 100 nM in series [2] (Homo sapiens, SW480, 144 h); 20 nM in series [4] (Homo sapiens, HT-29, 144 h).
The corresponding values for `CC[C@@]1(OC(=O)[C@@H](CC(C)C)NC(=O)[C@H](CCCNC(=N)N)NC(=S)Nc2ccc(OC3O[C@@H](C)[C@@H](O)[C@@H](OC)[C@@H]3O)cc2)C(=O)OCc2c1cc1n(c2=O)Cc2cc3ccccc3nc2-1` (stereo partly drawn) [Example 5, 20(S)-20-O-{N^α-[O-(3-O-Methyl-β-L-fucopyranosyl)-4-hydroxy-phenylamino-thiocarbonyl]-L-arginyl-D-leucyl}-camptothecin] are 200 nM, 80 nM and 50 nM.
On to `CC[C@@]1(OC(=O)[C@@H](CC(C)C)NC(=O)[C@H](CCCCN)NC(=S)Nc2ccc(OC3O[C@@H](C)[C@@H](O)[C@@H](OC)[C@@H]3O)cc2)C(=O)OCc2c1cc1n(c2=O)Cc2cc3ccccc3nc2-1` (stereo partly drawn) [Example 6, 20(S)-20-O-{N^α-[O-(3-O-Methyl-β-L-fuopyranosyl)-4-hydroxy-phenylamino-thiocarbonyl]-L-lysyl-D-leucyl}-camptothecin, hydrochloride], for which the IC50 in series [1] (Mus musculus, B16-F10, 144 h) worked out at 300 nM; in series [2] (Homo sapiens, SW480, 144 h) it was 60 nM; in series [4] (Homo sapiens, HT-29, 144 h), 30 nM.
The corresponding values for `CC[C@@]1(OC(=O)[C@H](CC(C)C)NC(=O)[C@H](CCCCN)NC(=S)Nc2ccc(OC3O[C@@H](C)[C@@H](O)[C@@H](OC)[C@@H]3O)cc2)C(=O)OCc2c1cc1n(c2=O)Cc2cc3ccccc3nc2-1` (stereo partly drawn) [Example 7, 20(S)-20-O-{N^α-O-(3-O-Methyl-β-L-fucopyranosyl)-4-hydroxy-phenylamino-thiocarbonyl]-L-lysyl-L-leucyl}-camptothecin, hydrochloride] are 20 nM, 80 nM and 30 nM.
On the same counts, the results for `CC[C@@]1(OC(=O)[C@@H](NC(=O)[C@H](CCCCN)NC(=S)Nc2ccc(OC3O[C@@H](C)[C@@H](O)[C@@H](OC)[C@@H]3O)cc2)C(C)C)C(=O)OCc2c1cc1n(c2=O)Cc2cc3ccccc3nc2-1` (stereo partly drawn) [Example 8, 20(S)-20-O-{N^α-[-(3-O-Methyl-β-L-fucopyranosyl)-4-hydroxy-phenylamino-thiocarbonyl]-L-lysyl-L-valyl}-camptothecin, hydrochloride] are 800 nM, 200 nM and 100 nM.
Consider `CC[C@@]1(OC(=O)[C@@H](NC(=O)[C@H](Cc2cnc[nH]2)NC(=S)Nc2ccc(O[C@H]3O[C@@H](C)[C@@H](O)[C@@H](OC)[C@@H]3O)cc2)C(C)C)C(=O)OCc2c1cc1n(c2=O)Cc2cc3ccccc3nc2-1.Cl` [Example 9, 20(S)-20-O-{N^α-[O-(3-O-Methyl-β-L-fucopyranosyl)-4-hydroxy-phenylamino-thiocarbonyl]-L-histidyl-L-valyl}-camptothecin, hydrochloride], for which the IC50 was found to be 400 nM in series [1] (setting [6]), 200 nM in series [2] (setting [7]) and 70 nM in series [4] (setting [8]). In series [3], the “Inhibition of the CSF-induced proliferation of mouse bone marrow stem cells IC50” value is listed as 15 ng/mL.
For `CC[C@@]1(OC(=O)[C@H](CC(C)C)NC(=O)[C@H](CCCNC(=N)N)NC(=S)Nc2ccc(OC3O[C@@H](C)[C@@H](O)[C@@H](OC)[C@@H]3O)cc2)C(=O)OCc2c1cc1n(c2=O)Cc2cc3ccccc3nc2-1` (stereo partly drawn) [Example 10, 20(S)-20-O-{N^α-[O-(3-O-Methyl-β-L-fucopyranosyl)-4-hydrdxy-phenylamino-thiocarbonyl]-L-arginyl-L-leucyl}-camptothecin], the IC50 in series [1] (Mus musculus, B16-F10, 144 h) worked out at 300 nM; in series [2] (Homo sapiens, SW480, 144 h), 100 nM; in series [4] (Homo sapiens, HT-29, 144 h), 50 nM.
